Results as given in patent US8466172B2, “Stabilization of hypoxia inducible factor (HIF) alpha” (FibroGen, Inc., priority 2001, dated 2013).
Values joined by “and” are separate entries in the source; they are usually repeats but may differ in a detail not shown here. Equal entries are not always repeated.

Experiments:
[1] = tested on: Wistar rats, acute myocardial infarction (AMI); experiment: Cardiac ischemia Experiment I, 4-week study after acute myocardial infarction; type: in vivo, rat; details: for fractional shortening: Treated-MI
Description: Seventy adult male Wistar rats (200-250 g) were anaesthetized and subjected to left coronary artery occlusion to produce acute myocardial infarction (AMI). Nine animals were subjected to identical surgery without coronary artery ligation. Twenty-four to forty-eight hours after surgery, electrocardiogram (ECG) electrodes were applied to the paws and a 15 MHz linear probe (Acuson Corp., Mountain View Calif.) was applied to the chest to obtain short axis transthoracic echocardiography (2DE) images at the mid-papillary muscle level. The probe was moved cephalad or caudad and angulated until clear endocardial visualization of the left ventricular cavity was detected. Images were obtained using the Sequoia ultrasound system (Acuson). Animals with less than 20% fractional shortening and regional wall motion abnormality on the 2DE were randomized to treatment with compound A (n=14) or vehicle (n=12). The sham controls were also randomized to treatment with compound A (n=4) or vehicle (n=5).
(§1) Animals were treated by gavage 2 times per day for the duration of the experiment with compound A at 50 mg/kg or with vehicle alone. Serum level of drug was determined periodically to establish that treated animals received sufficient and consistent amount of drug and that the measured levels were sufficient to inhibit prolyl 4-hydroxylase, a representative 2-oxoglutarate dioxygenase.
Serial 2DE images were obtained weekly. Three short axis 2DE digital clips containing 5 or more systolic and diastolic frames were captured and stored. Two observers blinded to treatment did measurements off-line. For the measurements, the digital images were slowed and frozen at end systole and end diastole. Two systolic and two diastolic frames from each of the three digital clips were measured by consensus and averaged. The anterior wall in systole (AWS) and diastole (AWD), posterior wall in systole (PWS) and diastole (PWD), and left ventricular end systolic (LVESD) and end diastolic (LVEDD) were measured according to the American Society for Echocardiology (ASE) leading-edge method. For consistency, measurements were done from the anterior to the posterior mid points of the left ventricular cavity and were randomly repeated to ensure reproducibility (reproducibility was approximately 96%).
At four weeks of treatment, in vivo hemodynamic measurements were determined, as described below, both before and after infusion (0.2 ml over 1 minute) of […] isoproterenol via the femoral vein. Hearts were then excised and weighed as described below.
(§2) To collect in vivo hemodynamic measurements, animals were anaesthetized and the right carotid artery was dissected free from surrounding tissues and canulated with an SPR-671 ultra-miniature pressure transducer (Millar Instruments, Inc., Houston Tex.). The catheter was then advanced into the left ventricle. After steady state was established, baseline heart rate (HR), developed pressure (DP), contractile index (CI), left ventricle systolic pressure (SBP) and end diastolic pressure (LVEDP), and maximal rate of pressure rise and fall (+dP/dt and −dP/dt, respectively) were recorded.
(§3) Following hemodynamic measurement, hearts were excised and weighed. Pieces of scarred myocardium, and right ventricle and left ventricle myocardium distant from the site of infarct were dissected out and weighed. Hydroxyproline and proline were determined by the method of Palmerini et al. (1985, J Chromatogr 339:285-92) except that L-azetidine-2-carboxylic acid (Sigma-Aldrich) was substituted for 3,4-dehydroproline as the internal standard.

[2] = tested on: Wistar rats, acute myocardial infarction (AMI); experiment: Cardiac ischemia Experiment I, 10-week study after acute myocardial infarction; type: in vivo, rat
Experimental: Alternatively, one hundred forty adult male Wistar rats (200-250 g) were anaesthetized and subjected to left coronary artery occlusion to produce AMI. Forty-eight hours after surgery, 2DE images were obtained and animals with a significant area of infarction were randomized to treatment with compound A (n=34) or vehicle (n=34).
as §1, with “4-hydroxylase.” for “4-hydroxylase, a representative 2-oxoglutarate dioxygenase.”
Digital mid-papillary muscle and apical four chamber 2DE images were obtained biweekly on half of the animals in each group until week 8. Two observers blinded to treatment did measurements off-line. For the measurements, the digital images were slowed and frozen at end systole and end diastole. Two to three endocardial surfaces were traced in both the short axis and four chamber views and averaged. The left ventricular area in systole and diastole, ejection fraction, fractional area change, wall thickness, mitral peak E wave velocity, aortic peak velocity, and infarct size were measured.
After 10 weeks of treatment, in vivo hemodynamic measurements were determined and hearts were excised and weighed as described below.
as §2, §3

O=C(O)c1c[nH]c2c(ccc3cccnc32)c1=O [Compound A, 4-oxo-1,4-dihydro-[1,10]phenanthroline-3-carboxylic acid]
Hydroxyproline/proline in infarct scar ([1]; 4 weeks post-MI): 0.34 ± 0.08
Hydroxyproline/proline in non-infarct left ventricular myocardium ([1]; 4 weeks post-MI): 0.12 ± 0.06
Hydroxyproline/proline in non-infarct right ventricular myocardium ([1]; 4 weeks post-MI): 0.13 ± 0.02
+dP/dt ([1]; 4 weeks post-MI, baseline): 9477 ± 581 mm Hg/sec
Developed pressure ([1]; 4 weeks post-MI, baseline): 133 ± 6 mm Hg
Systolic BP ([1]; 4 weeks post-MI, baseline): 143 ± 7 mm Hg
−dP/dt ([1]; 4 weeks post-MI, baseline): 9978 ± 827 mm Hg/sec
+dP/dt ([1]; 4 weeks post-MI, isoproterenol): 16830 ± 1195 mm Hg/sec
Developed pressure ([1]; 4 weeks post-MI, isoproterenol): 121 ± 9 mm Hg
Systolic BP ([1]; 4 weeks post-MI, isoproterenol): 130 ± 9 mm Hg
−dP/dt ([1]; 4 weeks post-MI, isoproterenol): 9234 ± 703 mm Hg/sec
fractional shortening ([1]; week 0 (baseline)): 10% and 10 ± 0.8%
fractional shortening ([1]; week 1): 17 ± 1%
fractional shortening ([1]; week 2): 20% and 20 ± 2%
fractional shortening ([1]; week 3): 21 ± 2%
fractional shortening ([1]; week 4): 21 ± 3%
increase in fractional shortening relative to baseline ([1]; week 2): 79%
deaths immediately following insult to the heart (FIG. 8) ([2]; 50 mg/kg gavage 2 times per day, n=34): no deaths
percent of treated group still alive ([2]; 8 weeks after myocardial infarction, 50 mg/kg gavage 2 times per day): over 90%
+dP/dt ([2]; 10 weeks post-MI): 6701 ± 331 mm Hg/sec
Developed pressure ([2]; 10 weeks post-MI): 97 ± 3 mm Hg
Hydroxyproline/proline in infarct scar ([2]; 10 weeks post-MI): 0.471 ± 0.024
Hydroxyproline/proline in non-infarct left ventricular myocardium ([2]; 10 weeks post-MI): 0.099 ± 0.025
Hydroxyproline/proline in non-infarct right ventricular myocardium ([2]; 10 weeks post-MI): 0.152 ± 0.044
Systolic BP ([2]; 10 weeks post-MI): 106 ± 4 mm Hg
−dP/dt ([2]; 10 weeks post-MI): 6395 ± 373 mm Hg/sec
left ventricular ejection fraction (LVEF) ([2]; at randomization): 33%
relative reduction in mortality ([2]; treated relative to untreated group, weeks 2 through 8): 77%
left ventricular ejection fraction (LVEF) relative to untreated controls (FIG. 10A) ([2]; weeks 2 through 8): statistically significant improvement
